According to patent EP1165069B1, “ANTITUMOUR SYNERGISTIC COMPOSITION” (Pharmacia Italia S.p.A., priority 1999, dated 2000):

Test system: disseminated L1210 murine leukemia
Test: Antileukemic activity against disseminated L1210 murine leukemia (in vivo, iv treatment)
Design: species or system mouse
Conditions: for LTS (Long Term Survivors (>60 days) at the end the experiment) / Tox (Number of toxic deaths/number of mice) / ILS% (Increase in life span): combination at the same doses and schedule; for ILS% (Increase in life span): L1210 cells 10^5/mouse iv on day 0
Excerpt: Combining doxorubicin and Ia at the same doses with the same schedule an increase of activity with ILS% values of 150 was observed, indicating a synergistic effect.
For these experiments Ia was solubilized in [Cremophor® /EtOH= 6.5:3.5]/[normal saline]=20/80 v/v, while standard etoposide pharmaceutical preparation and doxorubicin solubilized in water were used.

[1] = Table 2 experiment: Ia 1.5 mg/kg/day iv days +1,2, Doxorubicin 13 mg/kg/day iv day +3
[2] = doxorubicin alone 13 mg/kg day +3, Ia alone 1.5 mg/kg days +1,2
[3] = Table 1 experiment: Ia 1 mg/kg/day iv days +1,2, Etoposide 30 mg/kg/day iv day +3
[4] = etoposide alone 30 mg/kg day +3, Ia alone 1 mg/kg days +1,2

Row | Compound | LTS (Long Term Survivors (>60 days) at the end the experiment) [1] | Tox (Number of toxic deaths/number of mice) [1] | ILS% (Increase in life span) [1] [%] | toxicity (in words) [2] | LTS (Long Term Survivors (>60 days) at the end the experiment) [3] | Tox (Number of toxic deaths/number of mice) [3] | ILS% (Increase in life span) [3] [%] | toxicity (in words) [4]
1 | COc1cccc2c1C(=O)c1c(O)c3c(c(O)c1C2=O)C[C@@](O)(C(=O)CO)C[C@@H]3O[C@H]1C[C@H](N)[C@H](O)[C@H](C)O1 [Doxorubicin, doxorubicin] | 0/10 | 0/10 | 50 | without toxicity |  |  |  | 
2 | COc1cc([C@@H]2c3cc4c(cc3[C@@H](O[C@@H]3O[C@@H]5CO[C@@H](C)O[C@H]5[C@H](O)[C@H]3O)[C@H]3COC(=O)[C@H]23)OCO4)cc(OC)c1O [Etoposide, etoposide] |  |  |  |  | 0/10 | 0/10 | 100 | without toxicity
3 | CC(=O)[C@]1(O)Cc2c(O)c3c(c(O)c2[C@@H](O[C@H]2C[C@H](N4CC4)[C@H](OS(C)(=O)=O)[C@H](C)O2)C1)C(=O)c1ccccc1C3=O [Ia, 4-demethoxy-3'-deamino-3'-aziridinyl-4'-methansulfonyl daunorubicin] | 0/10 | 0/10 | 67 | without toxicity | 0/10 | 0/10 | 67 | without toxicity
